Data on 21 compounds can be found in US8258138B2, “Potassium channel blockers” (Xention Limited, priority 2008, dated 2012).

The target in one assay is hKv1.5 (Homo sapiens, UniProt P22460). Kind of assay: Kv1.5 Autopatch electrophysiology (whole cell patch-clamp). It is filed as cell-based. The settings on record: compound at 1 μM; room temperature (22-24° C.); total charge during step to 0 mV; read-out: hKv1.5 % inh. How it is done:
Kv1.5 Autopatch Electrophysiology Method
The external bathing solution contained (in mM): 150 NaCl, 10 KCl, […], 3 MgCl2, 1 CaCl2, 10 HEPES, pH 7.4. Patch pipettes were filled with an electrode solution of composition (in mM): 160 KCl, 0.5 MgCl2, 10 HEPES, 1 EGTA, pH 7.4 with KOH.
Compounds were dissolved in DMSO (100%) and made up in the external bather at a concentration of 1 μM. All experiments were conducted at room temperature (22-24° C.).
A cell suspension (10 ml), with a density of 100,000 cells/ml, was aliquoted into a 15 ml centrifuge tube and transferred to an incubator (37° C., 5% CO2) for approximately one hour before use. Following 60 min incubation, a tube was taken and centrifuged at 1000 rpm for 4 mins at room temperature. 9.5 ml supernatant was thence discarded, leaving a cell pellet at the bottom of the tube. The pellet was then resuspended using 100 μl of cold (4° C.), filtered (0.22 μm), 0.2% BSA/bather solution (0.02 g BSA/10 ml bather). The bottom of the tube was manually agitated gently until the solution became cloudy with cells. The 100 μl cell resuspension solution was then stored on the bench at 4° C. (using a Peltier-based temperature control device) until used.
A length of capillary glass (1B150F-4, WPI) was dipped into the cell suspension solution, such that ˜3 cm column of fluid was taken up by capillary action. A Ag/AgCl wire was dropped into the non-dipped end of the capillary also. The outside of the solution-filled end of the capillary was then dried and the capillary was loaded into the AutoPatch™.
Borosilicate glass patch pipettes (from 1.5 mm OD, thin-walled filamented, GC150-TF capillary glass, Harvard) were pulled using a DMZ pipette puller (Zeitz Instruments), and were back-filled using the internal pipette solution, being careful that no bubbles remain at the tip or in the body of the pipette. Patch pipettes typically had resistances of 2.3-3.5 MΩ. Once filled, the pipette tip and a proportion of the shaft (˜15 mm) were dipped into Sigmacote (Sigma). The recording pipette was then loaded into the AutoPatch™ Automated patch-clamping was initiated by the operator, but thereafter AutoPatch.exe continued the experiment providing that pre-set conditions and criteria were satisfied.
Whole cell patch-clamp recordings were made using the AutoPatch™ rig, which incorporated an EPC9 amplifier (HEKA, Germany) under control of Pulse software (v8.54, HEKA, Germany), a motion controller with 2 translators (Newport, UK), valve controller (VF1) and a c-level suction device all at room temperature (22-24° C.). This equipment was completely under the control of AutoPatch.exe and operator intervention was only made when there was a requirement to refill the drug reservoirs or to prevent the loss of a cell due to a technical error. Cells with an Rseries greater than 18 MΩ were discounted from the experiment.
Qualification stages prior to perfusion and drug application ensured that the observed current met the criteria for the experiment. Only those cells with an IK>500 pA were used for experiments. Cells were continuously perfused with external solution at a flow rate of 1.8-2 ml/minute. […] Online analysis of the hKv1.5 current during the application of compounds was performed by the AutoPatch™ software. Voltage-step protocols and analysis of data was performed as described for conventional electrophysiology.
Electrophysiology voltage-step protocols and analysis of data was performed as follows. Data was sampled at 5 kHz, and filtered with a −3 dB bandwidth of 2.5 kHz. Cells were held at a voltage of −80 mV. Currents were evoked to a voltage step for 1000 ms in duration at 0 mV every 5 s. Currents were analysed using Pulsefit software (v8.54, HEKA, Germany), with the total charge measured during the whole of the voltage step. All other plots were produced using Igor Pro (WaveMetrics).

A further assay concerns the target T1, human Kv1.3 (Homo sapiens, UniProt P22001).
T1 construct: expressed in transfected cells; host or cells: stably transfected cells grown in medium for CHO cells
The assay is described as follows: Kv1.3 Autopatch electrophysiology (whole cell patch-clamp, inhibition of charge movement). It is filed as cell-based. Particulars: compound at 1 μM; cells stably transfected with human Kv1.3; room temperature; total charge during step to +30 mV relative to control; read-out: hKv1.3 % inh. The method, boiled down: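 Whole-cell AutoPatch recordings were made at room temperature from cells held at −80 mV, with 500 ms steps to +30 mV every 15 s. The bath contained 10 mM KCl, pH 7.4, and the pipette K-gluconate/EGTA, pH 7.2.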

The structures appear in SMILES notation.

Sequence of hKv1.5 (P22460 whole entry): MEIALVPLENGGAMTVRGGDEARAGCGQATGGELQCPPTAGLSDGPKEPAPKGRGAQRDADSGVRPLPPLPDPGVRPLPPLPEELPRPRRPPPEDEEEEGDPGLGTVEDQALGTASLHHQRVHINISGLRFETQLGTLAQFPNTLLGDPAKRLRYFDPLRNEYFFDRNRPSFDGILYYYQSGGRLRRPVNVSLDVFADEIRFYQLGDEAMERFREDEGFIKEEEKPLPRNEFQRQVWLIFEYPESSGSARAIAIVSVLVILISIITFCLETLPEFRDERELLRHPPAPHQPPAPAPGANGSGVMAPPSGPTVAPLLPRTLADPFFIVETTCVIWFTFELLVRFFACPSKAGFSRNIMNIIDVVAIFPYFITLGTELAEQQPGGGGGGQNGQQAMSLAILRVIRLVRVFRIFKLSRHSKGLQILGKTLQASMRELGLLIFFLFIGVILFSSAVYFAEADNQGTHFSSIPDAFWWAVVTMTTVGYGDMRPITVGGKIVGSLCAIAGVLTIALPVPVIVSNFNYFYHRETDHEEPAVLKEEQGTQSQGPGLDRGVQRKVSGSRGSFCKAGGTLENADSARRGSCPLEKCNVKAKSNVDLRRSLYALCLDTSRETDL
T1 sequence (P22001 whole entry): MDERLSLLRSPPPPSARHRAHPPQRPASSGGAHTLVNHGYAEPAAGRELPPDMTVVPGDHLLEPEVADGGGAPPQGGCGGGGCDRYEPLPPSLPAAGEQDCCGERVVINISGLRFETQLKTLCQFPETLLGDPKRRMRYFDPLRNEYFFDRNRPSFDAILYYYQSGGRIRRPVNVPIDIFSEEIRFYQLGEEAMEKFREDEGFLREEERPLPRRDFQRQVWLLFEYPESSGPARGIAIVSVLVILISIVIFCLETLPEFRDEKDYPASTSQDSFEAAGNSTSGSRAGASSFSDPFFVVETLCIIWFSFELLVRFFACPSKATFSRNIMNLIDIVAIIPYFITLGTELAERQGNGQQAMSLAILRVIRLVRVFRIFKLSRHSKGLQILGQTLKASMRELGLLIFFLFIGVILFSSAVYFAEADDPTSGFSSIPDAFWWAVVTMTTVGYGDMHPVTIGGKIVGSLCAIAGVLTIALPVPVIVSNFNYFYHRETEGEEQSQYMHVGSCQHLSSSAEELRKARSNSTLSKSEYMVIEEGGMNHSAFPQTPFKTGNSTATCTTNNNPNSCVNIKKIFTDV

In the case of `N#Cc1cccc(S(=O)(=O)N(Cc2ccccc2)c2ccc(C(=O)N3CCN(c4ccccc4)CC3)cc2)c1` [Example 23, N-Benzyl-3-cyano-N-[4-(4-phenyl-piperazine-1-carbonyl)-phenyl]-benzenesulfonamide], the inhibition at 1 µM at hKv1.5 came out at 93.1%; on human Kv1.3, 79%.

Turning to `N#Cc1ccccc1S(=O)(=O)N(Cc1ccccc1)c1ccc(C(=O)N2CCN(c3ccccc3)CC2)cc1` [Example 24, N-Benzyl-2-cyano-N-[4-(4-phenyl-piperazine-1-carbonyl)-phenyl]-benzenesulfonamide], the inhibition at 1 µM on hKv1.5 amounted to 71.9%; on human Kv1.3, 84%.

Take `Cn1cnc(S(=O)(=O)N(Cc2ccccc2)c2ccc(C(=O)N3CCN(c4ccccc4)CC3)cc2)c1` [Example 25, 1-Methyl-1H-imidazole-4-sulfonic acid benzyl-[4-(4-phenyl-piperazine-1-carbonyl)-phenyl]-amide]: the inhibition at 1 µM at hKv1.5 is 58.8%; on human Kv1.3 it was 68%.

As to `Cc1ccccc1S(=O)(=O)N(Cc1ccccc1)c1ccc(C(=O)N2CCN(c3ccccc3)CC2)cc1` [Example 26, N-Benzyl-2-methyl-N-[4-(4-phenyl-piperazine-1-carbonyl)-phenyl]-benzenesulfonamide], the inhibition at 1 µM at hKv1.5 turned out to be 85.5%; at human Kv1.3, 82%.

On to `COc1cccc(S(=O)(=O)N(Cc2ccccc2)c2ccc(C(=O)N3CCN(c4ccccc4)CC3)cc2)c1` [Example 28, N-Benzyl-3-methoxy-N-[4-(4-phenyl-piperazine-1-carbonyl)-phenyl]-benzenesulfonamide], for which the inhibition at 1 µM on hKv1.5 was 81.2%; on human Kv1.3, 74%.

`O=C(c1ccc(N(Cc2ccccc2)S(=O)(=O)c2cc(Cl)cc(Cl)c2)cc1)N1CCN(c2ccccc2)CC1` [Example 29, N-Benzyl-3,5-dichloro-N-[4-(4-phenyl-piperazine-1-carbonyl)-phenyl]-benzenesulfonamide]: the inhibition at 1 µM at hKv1.5 worked out at 75.3%; on human Kv1.3, 70%.

With `O=C(c1ccc(N(Cc2ccccc2)S(=O)(=O)c2cccc(Cl)c2)cc1)N1CCN(c2ccccc2)CC1` [Example 30, N-Benzyl-3-chloro-N-[4-(4-phenyl-piperazine-1-carbonyl)-phenyl]-benzenesulfonamide], the results for the inhibition at 1 µM on hKv1.5 and on human Kv1.3 were 85.6% and 92%, respectively.

As for `O=C(c1ccc(N(Cc2cccc(F)c2)S(=O)(=O)c2ccccc2)cc1)N1CCN(c2ccccc2)CC1` [Example 31, N-(3-Fluoro-benzyl)-N-[4-(4-phenyl-piperazine-1-carbonyl)-phenyl]-benzenesulfonamide], the results for the inhibition at 1 µM at hKv1.5 and on human Kv1.3 were 61.6% and 67%, respectively.

`COc1ccccc1CN(c1ccc(C(=O)N2CCN(c3ccccc3)CC2)cc1)S(=O)(=O)c1ccccc1` [Example 32, N-(2-Methoxy-benzyl)-N-[4-(4-phenyl-piperazine-1-carbonyl)-phenyl]-benzenesulfonamide]: the inhibition at 1 µM turned out to be 44.2% at hKv1.5 and 68% at human Kv1.3.

`COc1cccc(CN(c2ccc(C(=O)N3CCN(c4ccccc4)CC3)cc2)S(=O)(=O)c2ccccc2)c1` [Example 33, N-(3-Methoxy-benzyl)-N-[4-(4-phenyl-piperazine-1-carbonyl)-phenyl]-benzenesulfonamide]: the inhibition at 1 µM at hKv1.5 turned out to be 55.7%; at human Kv1.3, 56%.

For the compound `Cc1ccc(CN(c2ccc(C(=O)N3CCN(c4ccccc4)CC3)cc2)S(=O)(=O)c2ccccc2)cc1` [Example 35, N-(4-Methyl-benzyl)-N-[4-(4-phenyl-piperazine-1-carbonyl)-phenyl]-benzenesulfonamide], the inhibition at 1 µM was 68.9% on hKv1.5 and 56% on human Kv1.3.

Regarding `CC1(C)CCc2cc(S(=O)(=O)N(Cc3ccccc3)c3ccc(C(=O)N4CCN(c5ccccc5)CC4)cc3)ccc2O1` [Example 39, 2,2-Dimethyl-chroman-6-sulfonic acid benzyl-[4-(4-phenyl-piperazine-1-carbonyl)-phenyl]-amide], the inhibition at 1 µM came out at 58.9% on hKv1.5 and 47% on human Kv1.3.

Regarding `O=C(c1ccc(N(Cc2ccccc2)S(=O)(=O)c2ccc([N+](=O)[O-])cc2)cc1)N1CCN(c2ccccc2)CC1` [Example 40, N-Benzyl-4-nitro-N-[4-(4-phenyl-piperazine-1-carbonyl)-phenyl]-benzenesulfonamide], the inhibition at 1 µM on hKv1.5 came out at 62.4%; on human Kv1.3, 62%.

On to `CCc1ccc(S(=O)(=O)N(Cc2ccccc2)c2ccc(C(=O)N3CCN(c4ccccc4)CC3)cc2)cc1` [Example 42, N-Benzyl-4-ethyl-N-[4-(4-phenyl-piperazine-1-carbonyl)-phenyl]-benzenesulfonamide], for which the inhibition at 1 µM on hKv1.5 worked out at 66.4%; on human Kv1.3 it was 76%.

As for `Cc1ccc(CN(c2ccc(C(=O)N3CCN(c4ccccc4)CC3)cc2)S(=O)(=O)c2cn(C)cn2)cc1` [Example 43, 1-Methyl-1H-imidazole-4-sulfonic acid (4-methyl-benzyl)-[4-(4-phenyl-piperazine-1-carbonyl)-phenyl]-amide], the inhibition at 1 µM is 46.4% at hKv1.5 and 78% on human Kv1.3.

Regarding `Cn1cnc(S(=O)(=O)N(Cc2cccc(F)c2)c2ccc(C(=O)N3CCN(c4ccccc4)CC3)cc2)c1` [Example 44, 1-Methyl-1H-imidazole-4-sulfonic acid (3-fluoro-benzyl)-[4-(4-phenyl-piperazine-1-carbonyl)-phenyl]-amide], the inhibition at 1 µM came out at 43.6% at hKv1.5 and 76% on human Kv1.3.

Regarding `Cc1nn(C)cc1S(=O)(=O)N(Cc1ccccc1)c1ccc(C(=O)N2CCN(c3ccccc3)CC2)cc1` [Example 46, 1,3-Dimethyl-1H-pyrazole-4-sulfonic acid benzyl-[4-(4-phenyl-piperazine-1-carbonyl)-phenyl]-amide], the inhibition at 1 µM on hKv1.5 stood at 62.9%; at human Kv1.3 it was 66%.

For `Cc1nc(C)c(S(=O)(=O)N(Cc2ccccc2)c2ccc(C(=O)N3CCN(c4ccccc4)CC3)cc2)s1` [Example 48, 2,4-Dimethyl-thiazole-5-sulfonic acid benzyl-[4-(4-phenyl-piperazine-1-carbonyl)-phenyl]-amide], the inhibition at 1 µM came out at 49.3% on hKv1.5 and 79% on human Kv1.3.

As to `Cc1cc(C(=O)N2CCN(c3ccccc3)CC2)ccc1N(Cc1ccccc1)S(=O)(=O)c1cn(C)cn1` [Example 49, 1-Methyl-1H-imidazole-4-sulfonic acid benzyl-[2-methyl-4-(4-phenyl-piperazine-1-carbonyl)-phenyl]-amide], the values for the inhibition at 1 µM at hKv1.5 and on human Kv1.3 were 50% and 76%, respectively.

For the compound `Cn1cnc(S(=O)(=O)N(Cc2ccccc2)c2ccc(C(=O)N3CCN(c4ccccc4)CC3)cc2F)c1` [Example 50, 1-Methyl-1H-imidazole-4-sulfonic acid benzyl-[2-fluoro-4-(4-phenyl-piperazine-1-carbonyl)-phenyl]-amide], the inhibition at 1 µM at hKv1.5 was 56.8%; on human Kv1.3 it was 69%.

Regarding `COc1cccc(CN(c2ccc(C(=O)N3CCN(c4ccccc4)CC3)cc2)S(=O)(=O)c2ccccc2)c1OC` [Example 51, N-(2,3-Dimethoxy-benzyl)-N-[4-(4-phenyl-piperazine-1-carbonyl)-phenyl]-benzenesulfonamide], the inhibition at 1 µM at hKv1.5 was 57.5%; at human Kv1.3, 42%.
